Reference: ChEMBL document CHEMBL1141416, “Discovery of a potent and selective prostaglandin D2 receptor antagonist, [(3R)-4-(4-chloro-benzyl)-7-fluoro-5-(methylsulfonyl)-1,2,3,4-tetrahydrocyclopenta[b]indol-3-yl]-acetic acid (MK-0524)” (J Med Chem, 2007)
Each block holds one molecule with its values, some of them ahead of it.

What was measured:
Hepatocyte [1] = assay: Covalent protein binding in rat hepatocyte after 2 hrs at 10 uM; type: ADME, cell-based; settings: hepatocytes
Liver microsomes [2] = assay: Covalent protein binding in human liver microsomes in presence of NADPH after 1 hr at 10 uM; type: ADME, Microsome
Liver microsomes [3] = assay: Protein binding in rat liver microsomes in presence of NADPH after 1 hr at 10 uM; type: ADME, Microsome
Hepatocyte [4] = assay: Protein binding in human hepatocyte after 2 hrs at 10 uM; type: ADME, cell-based; settings: hepatocytes
[5] = Metabolic stability in rat hepatocytes after 2 hrs at 50 uM; type: ADME, cell-based, Hepatocyte; settings: read-out: Stability
[6] = biological target: Prostaglandin E2 receptor EP4 subtype (Homo sapiens, UniProt P35408); assay: Binding affinity to human EP4 receptor expressed in HEK293 cells; type: cell-based
Chain of Prostaglandin E2 receptor EP4 subtype (P35408 whole entry): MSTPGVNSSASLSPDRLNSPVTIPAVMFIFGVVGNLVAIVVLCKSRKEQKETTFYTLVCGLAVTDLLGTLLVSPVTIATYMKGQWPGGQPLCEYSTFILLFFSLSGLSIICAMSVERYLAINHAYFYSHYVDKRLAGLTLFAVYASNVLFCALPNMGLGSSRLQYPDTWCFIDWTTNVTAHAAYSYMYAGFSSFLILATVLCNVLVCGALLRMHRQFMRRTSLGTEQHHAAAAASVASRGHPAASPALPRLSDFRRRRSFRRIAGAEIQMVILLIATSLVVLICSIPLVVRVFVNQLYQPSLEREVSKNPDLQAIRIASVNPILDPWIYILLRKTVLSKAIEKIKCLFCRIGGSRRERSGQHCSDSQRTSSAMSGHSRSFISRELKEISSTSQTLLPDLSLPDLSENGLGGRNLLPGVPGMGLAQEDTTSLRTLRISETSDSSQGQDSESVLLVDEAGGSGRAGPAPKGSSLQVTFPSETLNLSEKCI

[7] = biological target: T1, Prostaglandin D2 receptor (Homo sapiens, UniProt Q13258); assay: Activity at human DP receptor in platelet rich plasma assessed as inhibition of PGD2-induced cAMP accumulation; type: functional
T1 sequence (Q13258 whole entry): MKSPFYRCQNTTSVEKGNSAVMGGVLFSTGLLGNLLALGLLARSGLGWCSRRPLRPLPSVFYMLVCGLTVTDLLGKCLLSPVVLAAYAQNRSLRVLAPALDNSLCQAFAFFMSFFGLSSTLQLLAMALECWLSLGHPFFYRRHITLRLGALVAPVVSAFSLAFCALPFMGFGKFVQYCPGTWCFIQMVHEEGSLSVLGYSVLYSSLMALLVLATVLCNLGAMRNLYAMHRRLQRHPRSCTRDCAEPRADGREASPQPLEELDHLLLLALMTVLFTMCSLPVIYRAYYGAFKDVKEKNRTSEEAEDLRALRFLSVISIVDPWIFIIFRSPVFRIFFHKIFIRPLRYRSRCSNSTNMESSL

[8] = biological target: T1, Prostaglandin D2 receptor; assay: Activity at human DP receptor in washed platelets assessed as inhibition of PGD2-induced cAMP accumulation; type: functional
[9] = biological target: T1, Prostaglandin D2 receptor; assay: Binding affinity to human DP receptor expressed in HEK293 cells; type: cell-based
[10] = biological target: T2, Prostaglandin E2 receptor EP3 subtype (Homo sapiens, UniProt P43115); assay: Binding affinity to human EP3 receptor expressed in HEK293 cells; type: cell-based
T2 sequence (P43115 whole entry): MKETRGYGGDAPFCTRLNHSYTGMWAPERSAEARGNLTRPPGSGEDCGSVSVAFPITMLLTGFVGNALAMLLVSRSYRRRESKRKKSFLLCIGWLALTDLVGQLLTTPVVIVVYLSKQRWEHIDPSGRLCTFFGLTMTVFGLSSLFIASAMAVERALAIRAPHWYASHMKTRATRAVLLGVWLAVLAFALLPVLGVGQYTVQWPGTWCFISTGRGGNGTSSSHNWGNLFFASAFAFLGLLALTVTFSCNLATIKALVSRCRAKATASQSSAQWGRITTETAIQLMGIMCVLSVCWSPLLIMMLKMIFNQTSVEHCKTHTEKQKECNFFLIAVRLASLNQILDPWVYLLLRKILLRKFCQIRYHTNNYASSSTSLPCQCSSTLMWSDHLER

Thromboxane A2 receptor = biological target: T3, Thromboxane A2 receptor (Homo sapiens, UniProt P21731); assay: Binding affinity to human TP receptor expressed in HEK293 cells; type: cell-based
T3 sequence (P21731 whole entry): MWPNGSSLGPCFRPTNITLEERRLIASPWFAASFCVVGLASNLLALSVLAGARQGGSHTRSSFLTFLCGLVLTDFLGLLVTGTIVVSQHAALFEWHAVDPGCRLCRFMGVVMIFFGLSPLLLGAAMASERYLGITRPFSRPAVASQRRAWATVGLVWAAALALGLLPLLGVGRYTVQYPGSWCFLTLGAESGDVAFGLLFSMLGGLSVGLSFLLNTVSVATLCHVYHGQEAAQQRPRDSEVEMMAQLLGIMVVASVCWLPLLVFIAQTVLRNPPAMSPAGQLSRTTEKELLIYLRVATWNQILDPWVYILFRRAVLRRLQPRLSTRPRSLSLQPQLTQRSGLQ

[11] = biological target: Prostaglandin F2-alpha receptor (Homo sapiens, UniProt P43088); assay: Binding affinity to human FP receptor expressed in HEK293 cells; type: cell-based
Chain of Prostaglandin F2-alpha receptor (P43088 whole entry): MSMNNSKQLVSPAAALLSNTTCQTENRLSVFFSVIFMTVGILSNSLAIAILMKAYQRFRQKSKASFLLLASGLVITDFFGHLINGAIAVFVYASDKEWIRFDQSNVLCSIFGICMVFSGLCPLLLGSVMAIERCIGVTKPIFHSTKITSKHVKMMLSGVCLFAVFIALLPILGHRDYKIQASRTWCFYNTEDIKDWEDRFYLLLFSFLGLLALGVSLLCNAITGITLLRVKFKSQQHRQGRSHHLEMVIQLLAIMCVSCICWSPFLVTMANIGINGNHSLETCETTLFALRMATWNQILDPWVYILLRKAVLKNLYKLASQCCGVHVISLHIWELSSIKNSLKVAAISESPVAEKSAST

[12] = biological target: Prostaglandin E2 receptor EP2 subtype (Homo sapiens, UniProt P43116); assay: Binding affinity to human EP2 receptor expressed in HEK293 cells; type: cell-based
Chain of Prostaglandin E2 receptor EP2 subtype (P43116 whole entry): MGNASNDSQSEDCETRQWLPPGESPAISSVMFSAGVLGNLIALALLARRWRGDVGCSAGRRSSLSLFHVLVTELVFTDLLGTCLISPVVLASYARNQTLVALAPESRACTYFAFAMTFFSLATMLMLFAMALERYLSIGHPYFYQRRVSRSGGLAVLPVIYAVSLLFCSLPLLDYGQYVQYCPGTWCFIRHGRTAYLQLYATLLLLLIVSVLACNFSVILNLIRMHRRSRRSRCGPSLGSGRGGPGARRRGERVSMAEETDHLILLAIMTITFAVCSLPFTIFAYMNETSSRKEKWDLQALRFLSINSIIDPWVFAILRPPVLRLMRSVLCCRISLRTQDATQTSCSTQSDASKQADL

[13] = biological target: T4, Prostaglandin E2 receptor EP1 subtype (Homo sapiens, UniProt P34995); assay: Binding affinity to human EP1 receptor expressed in HEK293 cells; type: cell-based
T4 sequence (P34995 whole entry): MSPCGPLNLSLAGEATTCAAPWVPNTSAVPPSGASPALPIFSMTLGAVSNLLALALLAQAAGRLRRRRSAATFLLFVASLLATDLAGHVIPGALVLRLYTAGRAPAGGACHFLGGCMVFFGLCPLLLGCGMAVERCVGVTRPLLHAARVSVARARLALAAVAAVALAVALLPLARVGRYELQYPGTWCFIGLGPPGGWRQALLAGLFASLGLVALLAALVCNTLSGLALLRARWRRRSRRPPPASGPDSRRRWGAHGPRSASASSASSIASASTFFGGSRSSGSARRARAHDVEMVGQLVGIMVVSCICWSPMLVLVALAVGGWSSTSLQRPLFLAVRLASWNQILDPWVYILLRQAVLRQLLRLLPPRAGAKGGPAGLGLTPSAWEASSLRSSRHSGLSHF

Prostacyclin receptor = Prostacyclin receptor (Homo sapiens, UniProt P43119); assay: Binding affinity to human IP receptor expressed in HEK293 cells; type: cell-based
Chain of Prostacyclin receptor (P43119 whole entry): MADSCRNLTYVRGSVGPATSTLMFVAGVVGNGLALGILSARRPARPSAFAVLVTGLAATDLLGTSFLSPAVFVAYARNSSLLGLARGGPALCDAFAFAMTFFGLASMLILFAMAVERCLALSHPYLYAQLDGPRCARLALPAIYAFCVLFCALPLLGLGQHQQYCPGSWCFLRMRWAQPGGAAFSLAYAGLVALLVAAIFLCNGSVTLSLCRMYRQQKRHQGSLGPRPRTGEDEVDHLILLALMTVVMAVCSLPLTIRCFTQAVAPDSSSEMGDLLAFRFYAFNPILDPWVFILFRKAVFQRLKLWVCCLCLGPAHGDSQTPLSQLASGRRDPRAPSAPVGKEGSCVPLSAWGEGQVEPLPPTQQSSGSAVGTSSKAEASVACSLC

[14] = Activity at human TP receptor in platelet rich plasma assessed as inhibition […]-induced platelet aggregation
[15] = Plasma half life in Sprague-Dawley rat at 5 mg/kg, iv; type: ADME, organism-based; parameters: dose 5 mg/kg, route intravenous
[16] = Volume of distribution in Sprague-Dawley rat at 10 mg/kg, po and 5 mg/kg, iv; type: ADME, organism-based; settings: in vivo
[17] = (§1) Cmax in Sprague-Dawley rat after 6 hrs at 10 mg/kg, po; type: ADME, organism-based; parameters: dose 10 mg/kg, route oral; settings: Sprague-Dawley, in vivo
[18] = Bioavailability in Sprague-Dawley rat at 10 mg/kg, po and 5 mg/kg, iv; type: ADME, organism-based; settings: in vivo
[19] = Tmax in Sprague-Dawley rat biliary fluid by bile duct cannulation study at 5 mg/kg, iv; type: ADME, organism-based; parameters: dose 5 mg/kg, route intravenous
[20] = Cmax in Sprague-Dawley rat biliary fluid by bile duct cannulation study at 5 mg/kg, iv; type: ADME, organism-based; parameters: dose 5 mg/kg, route intravenous
[21] = Cmax in Sprague-Dawley rat at 10 mg/kg, po; type: ADME, organism-based; parameters: dose 10 mg/kg, route oral; settings: in vivo
[22] = Plasma clearance in Sprague-Dawley rat at 10 mg/kg, po and 5 mg/kg, iv; type: ADME, organism-based; parameters: unit not given here
[23] = Plasma concentration in sheep allergic rhinitis model after 30 mins at 0.03 mg/kg, iv
[24] = Plasma concentration in sheep allergic rhinitis model after 30 mins at 0.1 mg/kg, iv
Rattus norvegicus [25] = assay: as §1; type: ADME, organism-based; parameters: dose 10 mg/kg, route oral; settings: in vivo, 6 h
Rattus norvegicus [26] = assay: AUC (0-6hrs) in Sprague-Dawley rat at 100 mg/kg, po; type: ADME, organism-based, Plasma; parameters: time < 6 hr, dose 100 mg/kg, route oral; settings: in vivo
[27] = Cmax in Sprague-Dawley rat after 6 hrs at 100 mg/kg, po; type: ADME, organism-based; parameters: dose 100 mg/kg, route oral; settings: in vivo
[28] = Cmax in Sprague-Dawley rat at 100 mg/kg, po; type: ADME, organism-based; parameters: dose 100 mg/kg, route oral; settings: in vivo
Rattus norvegicus [29] = assay: AUC (0-6hrs) in Sprague-Dawley rat at 10 mg/kg, po; type: ADME, organism-based, Plasma; parameters: time < 6 hr, dose 10 mg/kg, route oral; settings: in vivo

Activity (Hepatocyte [1]): 9 pmol/mg/h
Activity (Liver microsomes [2]): 9 pmol/mg/h
Activity (Liver microsomes [3]): 13 pmol/mg/h
Activity (Hepatocyte [4]): < 5 pmol/mg/h
SMILES: [3H]C([3H])([3H])S(=O)(=O)c1cc(C(C)O)c2c(c1)c1c(n2Cc2ccc(Cl)cc2)[C@@H](CC(=O)O)CC1 (stereo not given in full)

remaining at 2 h, 50 µM [5]: 42%
Ki [6]: 4.4 µM
IC50 [7]: 0.023 µM (antagonist)
IC50 [8]: 0.00026 µM (antagonist)
Ki [9]: 0.0015 µM (antagonist)
Ki [10]: 0.47 µM (antagonist)
Ki (Thromboxane A2 receptor): 0.00084 µM (antagonist)
Ki [11]: 14 µM
Ki [12]: 0.41 µM (antagonist)
Ki [13]: 4.4 µM
Ki (Prostacyclin receptor): 0.4 µM (antagonist)
SMILES: O=C(O)C[C@H]1CCc2c1n(Cc1ccc(Cl)cc1)c1c(Br)cc(F)cc21

remaining at 2 h, 50 µM [5]: 100%
Ki [6]: > 20 µM
IC50 [14]: 43 µM
SMILES: CC(O)c1cc(S(C)(=O)=O)cc2c3c(n(Cc4ccc(Cl)cc4)c12)[C@@H](CC(=O)O)CC3 (stereo not given in full)

remaining at 2 h, 50 µM [5]: 93%
IC50 [14]: 8.4 µM
SMILES: CC(=O)c1cc(S(C)(=O)=O)cc2c3c(n(Cc4ccc(Cl)cc4)c12)[C@@H](CC(=O)O)CC3

half-life [15]: 12 h
Vdss [16]: 0.4 Not_given
Cmax [17]: 3.7 µM
bioavailability [18]: 41%
Tmax [19]: 1 h
Cmax [20]: 29 µM
Cmax [21]: 10 µM
clearance [22]: 1.4
SMILES: O=C([O-])C[C@H]1CCc2c1n(Cc1ccc(Cl)cc1)c1c(Br)cc(F)cc21.[Na+]

half-life [15]: 4 h
Vdss [16]: 0.5 Not_given
Cmax [17]: 7.5 µM
bioavailability [18]: 52%
Tmax [19]: 2.5 h
Cmax [20]: 81 µM
Cmax [21]: 21 µM
clearance [22]: 1.9
SMILES: CC(=O)c1cc(F)cc2c3c(n(Cc4ccc(Cl)cc4)c12)[C@@H](CC(=O)[O-])CC3.[Na+]

SMILES: CS(=O)(=O)c1cc(F)cc2c3c(n(Cc4ccc(Cl)cc4)c12)[C@@H](CC(=O)O)CC3 [LAROPIPRANT]
remaining at 2 h, 50 µM [5]: 32%
concentration at 0.5 h [23]: 0.091 µM
concentration at 0.5 h [24]: 0.67 µM

half-life [15]: 1.4 h
Vdss [16]: 0.7 Not_given
Cmax (Rattus norvegicus [25]): 0.6 µM
AUC (Rattus norvegicus [26]): 120 µM·h
Cmax [27]: 7 µM
bioavailability [18]: 128%
Cmax [28]: 31 µM
AUC (Rattus norvegicus [29]): 30 µM·h
Tmax [19]: 0 h
Cmax [20]: 1100 µM
Cmax [21]: 21 µM
clearance [22]: 14
SMILES: CC(=O)c1cc(S(C)(=O)=O)cc2c3c(n(Cc4ccc(Cl)cc4)c12)[C@@H](CC(=O)[O-])CC3.[Na+]

remaining at 2 h, 50 µM [5]: 35%
Ki [6]: > 20 µM
IC50 [7]: 0.015 µM (antagonist)
IC50 [8]: 0.00029 µM (antagonist)
Ki [9]: 0.0011 µM (antagonist)
Ki [10]: 1.2 µM
Ki (Thromboxane A2 receptor): 0.014 µM (antagonist)
Ki [11]: > 20 µM
Ki [12]: 0.31 µM (antagonist)
Ki [13]: > 9 µM
Ki (Prostacyclin receptor): 14 µM
SMILES: CC(=O)c1cc(F)cc2c3c(n(Cc4ccc(Cl)cc4)c12)[C@@H](CC(=O)O)CC3

half-life [15]: < 1 h
Vdss [16]: 0.8 Not_given
Cmax [17]: 0.03 µM
bioavailability [18]: 8%
Tmax [19]: 0 h
Cmax [20]: 3900 µM
Cmax [21]: 0.29 µM
clearance [22]: 50
SMILES: CC(O)c1cc(S(C)(=O)=O)cc2c3c(n(Cc4ccc(Cl)cc4)c12)[C@@H](CC(=O)[O-])CC3.[Na+] (stereo not given in full)

SMILES: CS(=O)(=O)c1cc(F)cc2c3c(n(Cc4ccc(Cl)cc4)c12)[C@@H](CC(=O)[O-])CC3.[Na+]
half-life [15]: 7 h
Vdss [16]: 0.5 Not_given
Cmax [17]: 6.3 µM
bioavailability [18]: 79%
Tmax [19]: 0.5 h
Cmax [20]: 103 µM
Cmax [21]: 39 µM
clearance [22]: 2.4

Activity (Hepatocyte [1]): 74 pmol/mg/h
Activity (Liver microsomes [2]): 33 pmol/mg/h
Activity (Liver microsomes [3]): 460 pmol/mg/h
Activity (Hepatocyte [4]): 33 pmol/mg/h
SMILES: O=[14C](O)C[C@H]1CCc2c1n(Cc1ccc(Cl)cc1)c1c(Br)cc(F)cc21

Activity (Hepatocyte [1]): 8 pmol/mg/h
Activity (Liver microsomes [2]): 18 pmol/mg/h
Activity (Liver microsomes [3]): 23 pmol/mg/h
Activity (Hepatocyte [4]): 5 pmol/mg/h
SMILES: [3H]C([3H])([3H])S(=O)(=O)c1cc(C(C)=O)c2c(c1)c1c(n2Cc2ccc(Cl)cc2)[C@@H](CC(=O)O)CC1

Activity (Hepatocyte [1]): 45 pmol/mg/h
Activity (Liver microsomes [2]): 46 pmol/mg/h
Activity (Liver microsomes [3]): 290 pmol/mg/h
Activity (Hepatocyte [4]): 16 pmol/mg/h
SMILES: CC(=O)c1cc(F)cc2c3c(n(Cc4ccc(Cl)cc4)c12)[C@@H](C[14C](=O)O)CC3
